What was measured:
[1] = Rate of sedimentation of the oral suspension (HPLC assay after shaking and rest); type: physicochemical; details: after 3 days
Procedure: The rate of sedimentation of the liquid suspension of the present invention was determined as set forth below. Two bottles containing the suspension of the present invention were shaken and left to rest. The bottles were then sampled immediately (time zero), then after 5 minutes, 10 minutes, 30 minutes, 60 minutes and after 72 hours (three days) post shaking. The levels of posaconazole and of the preservative (Sodium Benzoate) in these samples were assayed by HPLC. HPLC methods of detection are well-known to one of skill in the art.

[2] = Lipophilicity and water solubility (background statement); type: physicochemical
[3] = Randomized, open-label, 4-way crossover, single-dose bioavailability and food effect study; type: in vivo, healthy subjects; details: for 0-hour plasma concentration of posaconazole: likely carry-over from previous doses
Source text: The relative bioavailability of the posaconazole oral suspension was compared to a solid dosage form of posaconazole in healthy subjects. The first objective was to determine the relative bioavailability of posaconazole given as an oral suspension compared to an oral solid formulation when administered with a high-fat breakfast. The second objective was to determine the effect of high-fat and non-fat food relative to fasting conditions on the oral bioavailability of the compound of formula I when given as an oral suspension. Twenty healthy subjects completed this randomized, open-label, 4-way crossover, single-dose bioavailability and food effect study of posaconazole. Subjects received each of the following four treatments separated by at least a 7 day washout period: [table] Subjects were randomized to either remain fasted (Treatment A), to receive a standardized high fat breakfast (Treatment B or D) or a standardized non-fat breakfast (Treatment C). Meals were consumed in a 20-minute period prior to the morning drug administration and subjects received the appropriate treatment within 5 minute of completing the breakfast. […] The area under the plasma concentration-time curve from time zero to the final quantifiable sampling time [AUC(tf)] was calculated using the linear trapezoidal method and extrapolated to infinity (I) as follows: [formula] where C(tf) is the estimated concentration determined from linear regression at time, tf. Total body clearance was calculated by the following: CL=Dose/AUC(I) The apparent volume of distribution ([…]) was calculated from the ratio of the total body clearance to the terminal phase rate constant (K). Summary statistics were calculated for the plasma suspension formulation of the present invention compared to a prior art tablet formulation concentration-time data at each time point and the derived pharmacokinetic parameters. The original scale and log-transformed Cmax and AUC values were analyzed using an analysis of variance (ANOVA). […]

[4] = tested on: Aspergillis, Candida, Cryptococcus, Fusarium, and other opportunistic fungi; details: broad range of fungi; cited from earlier work

CC[C@@H]([C@H](C)O)n1ncn(-c2ccc(N3CCN(c4ccc(OC[C@@H]5CO[C@@](Cn6cncn6)(c6ccc(F)cc6F)C5)cc4)CC3)cc2)c1=O [posaconazole]
sedimentation of posaconazole [1]: not sedimented | lipophilicity [2]: highly lipophilic | water solubility [2]: extremely low | 0-hour plasma concentration of posaconazole ([3]; Subject 20, Treatment A): 22.5 ng/mL | 0-hour plasma concentration of posaconazole ([3]; Subject 20, Treatment B): 8.5 ng/mL | mean terminal t½ ([3]; independent of treatment): about 22 hour | antifungal activity [4]: potent

From US20030055067A1, “Antifungal composition with enhanced bioavailability” (SCHERING CORPORATION, priority 2001, published 2003)
